“And” between values parts separate entries of the source, which are not always exact repeats. Equal entries are not always repeated. Starred links: 1 amine or outer side, 2 acyl side, 3 side chain; linkers in the order of their positions; H or OH if unused. Non-standard residues stand in square brackets, D forms with d. Residues, ends and D or L forms follow the SMILES beside them. ξ: configuration not given here. Suc = O=C(CCC(=O)[*:2])[*:1]; Nphe = O=C(O)CNCc1ccccc1; ξF = NC(Cc1ccccc1)C(=O)O; Ava = NCCCCC(=O)O; GABA = NCCCC(=O)O; βAla = NCCC(=O)O
What was measured:
[1] = biological target: acetylcholinesterase (AChE) (Electrophorus electricus, UniProt O42275); assay: biochemical; conditions: for IC50: AChE from Electrophorus electricus, substrate acetylthiocholine, 30 min pre-incubation, mean ± SEM of triplicate independent experiments; for Selectivity: AChE versus BuChE (values fit IC50 BuChE / IC50 AChE)
[2] = biological target: T1, butyrylcholinesterase (BuChE) (Equus caballus, UniProt P81908); assay: biochemical; conditions: BuChE from equine serum, substrate butyrylthiocholine, 30 min pre-incubation, mean ± SEM of triplicate independent experiments
T1 construct: from Electrophorus electricus and equine serum; from tissue; host or cells: equine serum

AChE = AChE (Electrophorus electricus, UniProt O42275); assay: Kinetic study of AChE inhibition (Michaelis-Menten, Lineweaver-Burk); format: biochemical; conditions: Lineweaver-Burk plots, variation in Km and Vmax
Method: For this purpose, the rate of enzyme activity was measured at eight different concentrations of substrate ATC.
The assays were carried out in a total volume of 200 μL per well containing AChE from Electrophorus electricus (0.20 unit/mL) in PBS, the synthesized compound in DMSO, PBS at IC50, 2× IC50 concentration, and substrate solution. The general procedure was as follows: AChE and the synthesized compounds 7a to IC50 and twice concentrations in PBS were mixed and incubated at rt for 30 min. After incubation, substrate from 3.8 × 10^−3–0.48 mM was added into the mixture. The reaction was recorded for 10 min measuring the absorbance at 405 nm using a Microtiter plate reader (Multiskan EX, Thermo). Data were plotted using GraphPad Prism v4.03 software (GraphPad Software Inc., San Diego, CA, USA) to obtain the Michaelis–Menten constant (Km) and maximal velocity (Vmax) values. Km values were expressed in μM and Vmax as mol/min/mg protein and correspond to the mean ± SD of three independent assays in triplicate.
Figure 1 The Lineweaver–Burk plot of AChE (0.02 U) with an acetylthiocholine substrate in the absence and presence of inhibitor 7a.

T1 sequence (P81908 whole entry): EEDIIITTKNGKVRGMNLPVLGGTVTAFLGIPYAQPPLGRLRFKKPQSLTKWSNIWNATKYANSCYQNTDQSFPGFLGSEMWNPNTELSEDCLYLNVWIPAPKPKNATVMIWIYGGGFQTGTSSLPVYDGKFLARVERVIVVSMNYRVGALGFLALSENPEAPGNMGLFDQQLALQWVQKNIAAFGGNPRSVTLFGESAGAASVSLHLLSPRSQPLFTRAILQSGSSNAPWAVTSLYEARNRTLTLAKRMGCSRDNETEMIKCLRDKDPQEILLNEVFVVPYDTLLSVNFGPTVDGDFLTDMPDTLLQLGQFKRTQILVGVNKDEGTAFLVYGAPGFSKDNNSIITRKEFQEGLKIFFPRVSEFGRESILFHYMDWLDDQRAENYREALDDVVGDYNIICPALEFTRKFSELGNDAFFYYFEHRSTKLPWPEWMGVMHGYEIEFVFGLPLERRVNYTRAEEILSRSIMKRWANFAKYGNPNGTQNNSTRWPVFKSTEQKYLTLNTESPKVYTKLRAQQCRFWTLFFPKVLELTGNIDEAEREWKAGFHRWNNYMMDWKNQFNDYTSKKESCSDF
acetylcholinesterase (AChE), sequence (O42275 24-633): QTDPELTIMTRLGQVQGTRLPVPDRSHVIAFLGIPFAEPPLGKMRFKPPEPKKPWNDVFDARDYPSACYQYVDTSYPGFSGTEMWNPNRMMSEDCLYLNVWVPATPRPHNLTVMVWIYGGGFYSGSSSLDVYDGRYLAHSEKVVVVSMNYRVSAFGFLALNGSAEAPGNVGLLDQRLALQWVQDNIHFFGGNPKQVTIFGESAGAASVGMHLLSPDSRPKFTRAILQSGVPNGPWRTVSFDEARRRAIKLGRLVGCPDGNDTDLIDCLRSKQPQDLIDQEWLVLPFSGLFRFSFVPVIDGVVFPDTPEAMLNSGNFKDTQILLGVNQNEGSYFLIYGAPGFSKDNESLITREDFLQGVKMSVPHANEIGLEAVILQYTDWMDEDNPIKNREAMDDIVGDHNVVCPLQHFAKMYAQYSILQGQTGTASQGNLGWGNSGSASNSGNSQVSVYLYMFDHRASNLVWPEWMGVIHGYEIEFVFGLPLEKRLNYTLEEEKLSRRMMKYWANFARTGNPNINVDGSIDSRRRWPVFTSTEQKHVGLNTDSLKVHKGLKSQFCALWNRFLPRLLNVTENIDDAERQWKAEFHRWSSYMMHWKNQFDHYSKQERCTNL
AChE, sequence (O42275 24-633): as above

Structure (SMILES)	IC50 [1]	Selectivity [1]	IC50 [2]	kinetic mode of AChE inhibition (AChE)
O=C(O)CCC(=O)N(CC(=O)NC(Cc1ccccc1)C(=O)O)Cc1ccccc1 (stereo not shown) [6e, 2,6-Dibenzyl-4,7-dioxo-3,6-diazadecanedioic acid] (Suc-[Nphe]-[ξF]-OH)	305 ± 5.7 µM	0.45	135 µM and 136 µM	
NCCC(=O)N(CC(=O)NC(Cc1ccccc1)C(=O)O)Cc1ccccc1 (stereo not shown) [7b, 9-Amino-2,6-dibenzyl-4,7-dioxo-3,6-diazanonanoic acid] (H-[βAla]-[Nphe]-[ξF]-OH)	41.3 ± 2.3 µM	11.17	461 ± 6.2 µM	
NCCCCC(=O)N(CC(=O)NC(Cc1ccccc1)C(=O)O)Cc1ccccc1 (stereo not shown) [7c, 11-Amino-2,6-dibenzyl-4,7-dioxo-3,6-diazaundecanoic acid] (H-[Ava]-[Nphe]-[ξF]-OH)	12.6 ± 1.6 µM	50.69	636.7 ± 3.7 µM	
NCCCC(=O)N(CC(=O)NC(Cc1ccccc1)C(=O)O)Cc1ccccc1 (stereo not shown) [7a, 10-Amino-2,6-dibenzyl-4,7-dioxo-3,6-diazadecanoic acid] (H-[GABA]-[Nphe]-[ξF]-OH)	3.67 ± 0.8 µM	66.44	244 ± 4.6 µM	mixed-type inhibition
O=C(O)CCCN(CC(=O)NC(Cc1ccccc1)C(=O)O)C(=O)c1ccccc1 (stereo not shown) [6d]	10.6 ± 1.5 µM	28.36	302 ± 5.8 µM	

— publication PMC6337627 (Molecules, 2019)
